Results on 16 molecules are retold here after BindingDB's records for doi:10.1021/jm00101a007 (Centre De Recherche De Vitry-Alfortville, 1992).

The first assay has as its target Leukotriene B4 receptor (Cavia porcellus). The assay can be described thus: Inhibition of [3H]LTB4 binding to Leukotriene B4 receptor in the guinea pig spleen membranes.
One may read the IC50 as the point on the concentration scale where inhibition reaches its midpoint. Regarding `O=C(O)CCCCCCOc1cc(-c2ccccc2)c2ccccc2n1`, the IC50 was 1800 nM.

Molecule `CC(CCCCOc1cc(-c2ccccc2)c2ccccc2n1)C(=O)O` (stereo unspecified) displayed a half-inhibitory concentration (IC50) of 550 nM.

The molecule `CC(C)(CCCCOc1cc(-c2ccc(N)cc2)c2ccccc2n1)C(=O)O` came in with a half-inhibitory concentration (IC50) of 40 nM.

Consider `O=C(O)CCCCCOc1cc(-c2ccc(Cl)cc2)c2ccccc2n1`, for which the half-maximal inhibitory concentration (IC50) turned out to be 30 nM.

In turn, `CC(C)(CCCCOc1cc(-c2ccccc2)c2cc(Cl)ccc2n1)C(=O)O` showed a concentration for half-maximal inhibition (IC50) of 2500 nM.

In the case of `CC(C)(CCCCOc1cc(-c2ccc(Cl)cc2)c2ccccc2n1)C(=O)O`, the IC50 came to 15 nM. Against the preceding molecule, the IC50 is about 170-fold lower.

The molecule `CC(C)(CCCCOc1cc(-c2ccc(Cl)cc2)c2ccccc2n1)c1nnn[nH]1` had a 50% inhibitory concentration (IC50) of 30 nM.

For `CC(C)(CCCCOc1cc(-c2ccccc2)c2ccccc2n1)c1nnn[nH]1`, the IC50 is 400 nM.

For the molecule `CC(C)(CCCCOc1cc(-c2cccc(Cl)c2)c2ccccc2n1)C(=O)O`, the 50% inhibitory concentration (IC50) came to 1100 nM.

`CC(C)(CCCCOc1cc(-c2ccc(C(F)(F)F)cc2)c2ccccc2n1)C(=O)O` showed an IC50 of 300 nM.

In turn, `Cc1ccc(-c2cc(OCCCCC(C)(C)C(=O)O)nc3ccccc23)cc1` came in with a 50% inhibitory concentration (IC50) of 30 nM.

`COc1cccc(-c2cc(OCCCCC(C)(C)C(=O)O)nc3ccccc23)c1` displayed an IC50 of 300 nM. This IC50 lies about 10-fold higher than the previous one.

As for `CC(C)(CCCCOc1cc(-c2ccc([N+](=O)[O-])cc2)c2ccccc2n1)C(=O)O`, the half-maximal inhibitory concentration (IC50) was 150 nM.

In turn, `c1ccc(-c2cc(OCCCCCc3nnn[nH]3)nc3ccccc23)cc1` registered a concentration for half-maximal inhibition (IC50) of 500 nM.

On to `O=C(O)CCCCCOc1cc(-c2ccccc2)c2ccccc2n1`, for which the IC50 was 700 nM.

Another assay shares this target. The assay is described as above. The source holds these as a separate data set.
Take `CC(C)(CCCCOc1cc(-c2ccccc2)c2ccccc2n1)C(=O)O`: the concentration for half-maximal inhibition (IC50) worked out at 183 nM. This counts as sub-micromolar.
